Data set [1] concerns PC12 cells. As to the kind of experiment: Neuroprotection in oxygen-glucose deprivation injured PC12 cells (MTT cell viability). Type of data set: cell-based. The protocol: The neuroprotective activity of IMM-H004 and IMM-H004G was evaluated on PC12 cells damaged by oxygen-glucose deprivation (OGD). PC12 cells were purchased from the American Type Culture Collection. Cultures were maintained at 37°C in 5% CO2 in a humidified incubator. For cell viability assay, PC12 cells were incubated in 96-well plates at a density of 5 × 10^4/ml for 24 h. In the sham group, PC12 cells were cultured in Dulbecco’s modified eagle medium supplemented with 5% fetal bovine serum and 5% equine serum (Gibco, USA). In the OGD group, PC12 cells were cultured in glucose-free Earle’s balanced salt solution supplemented with 15 mM Na2S2O4 for 2 h and then incubated with compounds of nerve growth factor (NGF, 10 μM), edaravone (10 μM, 50 μM), IMM-H004 (1 μM, 10 μM), and IMM-H004G (1 μM, 10 μM), respectively. After 24 h of incubation, MTT (5 mg/ml) was added into the cell cultures and incubated for an additional 4 h. Then the supernatant was removed and 100 μL DMSO was added. Absorbance was measured using an Ultramark microplate reader at a wavelength of 562 nm. The cell viability was expressed as a percentage of the absorbance density value of control cultures.

The nature of data set [2]: Excretion in rat urine, bile and feces after iv IMM-H004 citrate. The note with it: iv IMM-H004 citrate 6 mg/kg. It is filed as in vivo. As for the experimental part: After intravenous (iv) injection with IMM-H004 citrate (6 mg/kg, dissolved in saline to yield a concentration of 1.2 mg/ml), rats were housed individually in metabolic cages to allow separate collection of urine and feces until 72 h postdose. Additional rats were bile cannulated under light ether anesthesia. Each rat was housed individually in a metabolic cage and allowed to recover from anesthesia for 2 to 3 h. Then bile duct cannulated rats were iv injected with IMM-H004 citrate (6 mg/kg, dissolved in saline to yield a concentration of 1.2 mg/ml), bile samples were collected until 24 h postdose.
Feces samples were homogenized in 10-fold solvent of water and methanol (1:1) and diluted 10-fold in water. Bile and urine samples were diluted 100-fold in water. The concentrations of IMM-H004, M1, M2, and IMM-H004G in diluted bile, urine, and feces samples were determined by LC-MS/MS.
(§1) The LC-MS/MS system consisted of Shimadzu 30A UPLC and API 4000 triple quadruple mass spectrometer (AB SCIEX, USA). Data acquisition and analysis were accomplished using Analyst 1.5.2 software. The analytes and IS were chromatographed by injection of 1 μL sample. The mobile phases consisted of solvent A (0.5% formic acid in water) and solvent B (0.5% formic acid in methanol) at a flow rate of 0.3 ml/min on an Eclipse Plus C18 column (2.1 mm × 50 mm, 3.5 μm, Agilent, USA), and the operating temperature was 40°C. The elution condition was 10% solvent B for 0.7 min, ascending to 98% B in 2.3 min, holding for 3.0 min and reequilibrating to 10% B within 0.1 min and maintained for 2.4 min (Jiang JW, 2018). The specific transitions monitored were 305→248 for IMM-H004, 291→234 for M1, 291→248 for M2, 481→305 for IMM-H004G, 385→305 for M4, and 260→183 for IS.

In data set [3] the test system is MCAO/R rats. As to the kind of experiment: Neuroprotection in transient MCAO/R rats (infarct volume, neurological score). Type of data set: in vivo, rat. Conditions: 10 mg/kg iv after reperfusion, 24 h, vs model. An excerpt:
Transient MCAO/R was applied to compare the neuroprotection of IMM-H004 and IMM-H004G. Rats were fasted overnight with free access to water and randomly assigned to different groups. Rats were anesthetized with a mixture of 5% isoflurane and 95% oxygen and maintained with a mixture of 3% isoflurane and 97% oxygen during the surgical procedure. A 4-0 nylon thread, the tip of which was burned (diameter 0.36 mm), was inserted into the right internal carotid artery and advanced until the origin of the right MCA was occluded. After 60 min of the occlusion, the thread was withdrawn to allow reperfusion, and then the rats were returned to the chamber. Saline or edaravone at dose of 6 mg/kg or IMM-H004 citrate and IMM-H004G at dose of 10 mg/kg (dissolved in saline to yield a concentration of 2 mg/ml) were administered by intravenous injection immediately after reperfusion.
The rats were assessed for neurologic deficits at 24 h after reperfusion according to Zea Longa’s five-point scale. […] The animals without symptoms of neurological impairment or dying after the surgery were rejected. All animals were killed 24 h after reperfusion. Brains of the animals were removed and cut into 2 mm-thick slices, for a total of six slices per animal. The slices were immersed in a 2% solution of 2,3,5-triphenyltetrazolium chloride in phosphate buffered saline at 37°C for 20 min and then fixed in 4% formaldehyde overnight. Images of the slices were obtained with a scanner and a computer. The infarct area and the total area were calculated by tracing the areas on the computer screen with Image J. The percentage of the infarct volume was expressed as the infarct volumes (white parts)/the whole volume of the cortex.

The test system of data set [4] is primary human hepatocytes. As to the kind of experiment: IMM-H004 metabolism by primary human hepatocytes. It is filed as in vitro ADME. The note with it: human hepatocytes incubated with 30 nM IMM-H004, up to 3 h. The protocol: Primary human hepatocytes were used to predict the metabolism of IMM-H004 in humans. Cryopreserved human hepatocytes were obtained from Bioreclamation IVT (Baltimore, MD, USA). Three different hepatocyte preparations (Lot CDP, ZHL, and DSX) were pooled in this study. Hepatocytes were resuspended and seeded in 96-well plates at a density of 0.7 × 10^6 cells/ml. After 24 h of culture, cells were washed with Hanks’ balanced salt solution, followed by addition of 30 nM IMM-H004 dissolved in Hanks’ balanced salt solution. Incubations were carried out at 37°C up to 3 h under gentle shaking. Cell culture supernatant was collected within 3 h and determined by LC-MS/MS. All experiments were conducted in triplicate.
as §1

Details of data set [5]: method as in Jiang et al., 2018. The note with it: brain microdialysis; ref Jiang et al., 2018; cited from earlier work.
Data set [6] can be described thus: Plasma pharmacokinetics in MCAO/R rats after iv IMM-H004 citrate. Conditions: rat, iv IMM-H004 citrate 10 mg/kg; for Tmax: iv, 10 mg/kg. It is filed as in vivo. The protocol: The plasma pharmacokinetics (PK) and pharmacodynamics (PD) of IMM-H004 and IMM-H004G were investigated in a cerebral ischemia-reperfusion rat model produced by middle cerebral artery occlusion/reperfusion (MCAO/R) after iv administration of IMM-H004. In brief, rats underwent a 1-h MCAO and then received IMM-H004 citrate (10 mg/kg, dissolved in saline to yield a concentration of 2 mg/ml) immediately after reperfusion, an effective dosing time as reported ([Zuo et al., 2015]; [Yang et al., 2017]). For sham surgery, all the arteries were exposed for the surgical period, but the filament was not inserted into the MCA. Blood samples were collected through external jugular vein cannula into heparinized tubes at 0.033, 0.167, 0.5, 1, 2, 4, 6, 8, 12, 24, 36, and 48 h postdose for IMM-H004 and IMM-H004G detection (50 μL of blood at each time point) and at 0.5, 1, 2, 4, 7, and 10 h postdose for malondialdehyde (MDA) detection (80 μL of blood at each time point). Plasma was immediately separated by centrifugation at 900×g for 5 min. Plasma concentrations of IMM-H004 and IMM-H004G in ischemia-reperfusion rats were determined by LC-MS/MS analysis. The PK parameters were calculated by noncompartmental analysis using WinNonlin Version 6.1 (Pharsight, Mountain View, CA). Plasma MDA concentrations in ischemia-reperfusion and sham rats within 24 h were estimated by enzyme-linked immunosorbent assay.
as §1

For data set [7], the system named is recombinant human CYP450 enzymes. As to the kind of experiment: Metabolism by cDNA-expressed human CYP450 enzymes. Type of data set: in vitro ADME. Conditions: 1 μM IMM-H004, 50 pmol/ml CYP, 40 min. The protocol: CYP450s. IMM-H004 was incubated in triplicate with […] individual human complementary DNA (cDNA) expressed CYPs (CYP1A1, 1A2, 2A6, 2B6, 2C8, 2C9, 2C19, 2D6, 2E1, 2J2, 3A4, 4A11, 4F2, and 4F3) at 37°C. The incubation mixtures contained individual CYP450 enzymes (50 pmol/ml), IMM-H004 (1 μM), and NADPH regeneration system in a final volume of 0.2 ml Tris-HCl buffer (50 mM, pH 7.4) containing 5 mM MgCl2. The mixtures were incubated for 40 min before being quenched with two volumes of ice-cold acetonitrile containing IS (100 ng/ml). After vortex-mixing and centrifugation, M1 and M2 in the supernatant were analyzed by LC-MS/MS.

Data set [8] has as its system chemokine-like factor 1. More on the design: method as in earlier work. Conditions: ref Li et al., 2010, Kong et al., 2011, Sun et al., 2013, 2014, read-out: IC50 as antagonist of chemokine-like factor 1; cited from earlier work.
In data set [9] the test system is cell cultures. The note with it: not tested in this paper's methods; reference not given; cited from earlier work.

These results are taken from paper PMC6584114, “Metabolism of IMM-H004 and Its Pharmacokinetic-Pharmacodynamic Analysis in Cerebral Ischemia/Reperfusion Injured Rats” (Frontiers in Pharmacology, 2019).

Where two headings read alike, the source gives them in different places. Some results are limits rather than exact numbers.

Take `COc1cc(OC2OC(C(=O)O)C(O)C(O)C2O)cc2oc(=O)c(N3CCN(C)CC3)c(C)c12` (stereo not shown) [IMM-H004G]: the “cell viability of OGD-injured PC12 cells” value in data set [1] (1 and 10 μM, 24 h, MTT, vs model group) is recorded as “significant (p < 0.05) preservation of viability”. In addition, the “IMM-H004 detected in PC12 cultures after incubation with IMM-H004G” value in data set [1] (24 h of incubation with IMM-H004G) was “only trace of IMM-H004 could be detected”. For the same compound, the “recovery of IMM-H004G in bile” value in data set [2] (bile duct cannulated rats, until 24 h) is given as 75.9 % of intake. Besides, the IMM-H004G in feces entry in data set [2] (rat feces) is recorded as “undetectable”. In addition, in [2] (rat urine, 72-h sampling period), the “urinary IMM-H004G recovered” value was 69.7 % of intake. In data set [3], the infarct volume result was “markedly reduced (p < 0.01)” and the neurological test score result is “significant improvement (p < 0.01)”. For the same compound, in [4], the “detection of metabolite in cell supernatant” value (shortened to “detection of metabolite”) was “could be detected”. Moreover, the “exposure of IMM-H004G in rat brain extracellular fluid relative to IMM-H004” value in data set [5] is 10.5 fold. In data set [6], this compound displayed an AUC(0-inf) of 29100 ng·h/mL, an AUC(0-t) of 28900 ng·h/mL and a Cmax of 13000 ng/mL. Also, the MRT last in data set [6] (read-out: MRT(0-t)) turned out to be 7.89 ± 0.57 h. The MRT inf in [6] (read-out: MRT(0-∞)) worked out at 8.16 ± 0.65 h. Also, in [6] (read-out: t 1/2β (converted)), the half-life is 6.61 ± 0.86 h. Further, the Tmax in data set [6] (read-out: T max) stood at 0.17 h. Further, the Tmax in data set [6] (read-out: time to maximum plasma concentration after dosing) is at most 0.25 h.
Turning to `Cc1c(N2CCN(C)CC2)c(=O)oc2cc(O)cc(O)c12` [M1], in [7], the “M1 formation in CYP450 enzyme incubations” value is “could not be detected in all CYP450 enzymes incubations”. Further, in data set [8], the half-maximal inhibitory concentration (IC50) was 21.2 nM. Also, the “detection of metabolite” value in data set [4] is given as “not detectable”. Besides, in data set [9], the “neuroprotective activity in cell cultures” value is reported as “showed neuroprotective activity in cell cultures”.
For `COc1cc(O)cc2oc(=O)c(N3CCNCC3)c(C)c12` [M2], the “detection of metabolite” value in data set [4] is listed as “not detectable”.

A word on the AUC(0-inf): it is total exposure, with the tail of the curve extrapolated. Read a low AUC(0-inf) as less exposure. Broadly, the AUC(0-t) is the area under the concentration-time curve up to a stated or last time point. Read a high AUC(0-t) as more exposure. As a reminder, the Cmax is the peak of the concentration-time curve. By IC50 is commonly meant the midpoint of a concentration-inhibition curve.
